Measurements as given in ChEMBL document CHEMBL1201862, “PubChem BioAssay data set” (2004).
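Cultured in 96-well plates, cells were exposed to test compound for 48 hours across five concentrations. The concentration for 50% growth inhibition is given as GI50.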 Activity calls are given as the source filed them. Cut-off read from the data, not from the text of the source: active = GI50 up to about 1.1 µM and inactive = higher.

Experiments:
Experiment in all cases: inhibition of tumour cell growth, NCI panel, 48 h
[1] = test system: OVCAR-4
[2] = test system: MOLT-4
[3] = test system: UACC-62
[4] = test system: SF-268
[5] = test system: HOP-92
[6] = test system: NCI-H522
[7] = test system: COLO 205
[8] = test system: SK-MEL-2
[9] = test system: M14
[10] = test system: KM-20L2
[11] = test system: HT-29
[12] = test system: SN12C
[13] = test system: HCC 2998
[14] = test system: NCI-H460
[15] = test system: M19-MEL
[16] = test system: OVCAR-5
[17] = test system: NCI-H23
[18] = test system: IGROV-1
[19] = test system: SF-539
[20] = test system: A498

Measured: GI50

CN(C)C(=O)OC1C(=O)N(C)c2ccc(Cl)cc2C2(c3ccccc3)N1C2(Cl)Cl (configuration not stated)
inactive: [1] > 100 µM | [2] 47.9 µM | [3] 64.7 µM | [4] > 100 µM | [5] 18.7 µM | [6] 46 µM | [7] > 100 µM | [8] > 100 µM | [9] > 100 µM | [10] 40 µM | [11] > 100 µM | [12] 59.3 µM | [13] > 100 µM | [14] > 100 µM | [15] > 100 µM | [16] > 100 µM | [17] 47.8 µM | [18] > 100 µM

COc1ccc(/C(Cl)=C(\C=O)c2ccc(Cl)c(Cl)c2)cc1OC
inactive: [2] 2.24 µM | [3] 4.63 µM | [4] 3.59 µM | [5] 2.69 µM | [6] 2.36 µM | [7] 16.7 µM | [8] 1.87 µM | [9] 7.1 µM | [10] 6 µM | [11] 2.47 µM | [19] 5.89 µM | [12] 4.28 µM | [14] 3.4 µM | [15] 8.11 µM | [17] 2.9 µM | [20] 15.2 µM | [18] > 10 µM

CCOC(=O)C(C)N1C(=O)c2ccccc2S1(=O)=O (configuration not stated)
inactive: [1] > 100 µM | [2] > 100 µM | [3] > 100 µM | [4] > 100 µM | [5] > 100 µM | [6] > 100 µM | [7] > 100 µM | [8] > 100 µM | [11] > 100 µM | [19] > 100 µM | [12] > 100 µM | [13] > 100 µM | [14] > 100 µM | [15] > 100 µM | [16] > 100 µM | [17] > 100 µM | [20] > 100 µM | [18] > 100 µM

CCNc1nnc(-c2nsc3ccccc23)s1
inactive: [1] 86.5 µM | [2] > 100 µM | [3] > 100 µM | [4] 23.5 µM | [5] > 100 µM | [7] > 100 µM | [8] > 100 µM | [9] > 100 µM | [10] 55.3 µM | [11] 26.5 µM | [19] 56.2 µM | [12] > 100 µM | [13] 67.6 µM | [14] 33.2 µM | [15] > 100 µM | [16] > 100 µM | [17] 45.5 µM | [18] > 100 µM

CN(C)c1ccc(/C=C2\C[C@H]3[C@@H]4CCc5cc(O)ccc5[C@H]4CC[C@]3(C)C2=O)cc1
inactive: [1] > 100 µM | [2] > 100 µM | [3] 17.1 µM | [4] 21.3 µM | [5] 61.5 µM | [7] 64.7 µM | [8] 35.6 µM | [9] > 100 µM | [11] 38.3 µM | [19] 23.4 µM | [13] > 100 µM | [14] > 100 µM | [16] > 100 µM | [17] > 100 µM | [20] 98.2 µM | [18] 48 µM
